The source of these data is patent US6440659B1, “Inhibitors of retroviral protease as inducers of reversible insulin resistance in vitro and in vivo” (Washington University, priority 2000, dated 2002).

Assay [1] deals with T1, Glut4 (Rattus norvegicus, UniProt P19357).
T1 construct: expressed in transfected cells; host or cells: Xenopus laevis oocytes, microinjected with in vitro transcribed mRNA
T1 sequence (P19357 1-509): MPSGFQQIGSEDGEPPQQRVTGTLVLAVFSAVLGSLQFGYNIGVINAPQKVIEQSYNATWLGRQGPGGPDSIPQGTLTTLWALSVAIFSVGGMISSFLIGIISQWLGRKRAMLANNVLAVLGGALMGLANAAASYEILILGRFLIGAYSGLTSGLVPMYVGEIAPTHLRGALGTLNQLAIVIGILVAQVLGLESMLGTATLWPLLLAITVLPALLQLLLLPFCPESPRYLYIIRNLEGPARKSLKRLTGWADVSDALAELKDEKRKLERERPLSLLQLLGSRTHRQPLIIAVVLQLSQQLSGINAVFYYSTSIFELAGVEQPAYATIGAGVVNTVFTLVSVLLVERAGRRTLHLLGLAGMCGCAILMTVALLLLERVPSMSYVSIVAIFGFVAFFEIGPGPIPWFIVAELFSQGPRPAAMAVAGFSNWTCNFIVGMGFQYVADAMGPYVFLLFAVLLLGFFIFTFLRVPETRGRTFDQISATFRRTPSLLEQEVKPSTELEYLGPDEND
The assay is described as follows: [3H]-2-deoxyglucose uptake in Xenopus oocytes expressing Glut4. The assay is classed as cell-based. As to conditions: for inhibition at 50 µM: 50 μM (FIG. 3B). The procedure: (§1) FIG. 3A. Xenopus oocytes heterologously expressing either Glut1 or Glut4 isoforms were used for [^3H]-2-deoxyglucose uptake measurement in Barth's Saline at 22° C. for 30 min. […] Plotted are the mean uptake from 15-20 oocytes±S.E. [* indicates p<0.01 compared with control (ANOVA with Fischer's PLSD posthoc analysis).]
(§2) FIG. 3B. Glucose uptake in X. laevis oocytes as described above. […] The data are normalized to the uptake from the control oocytes which were not exposed to protease inhibitor. [* indicates p<0.0001 compared with control (ANOVA with Fischer's PLSD posthoc analysis).]
(§3) Xenopus laevis oocytes were prepared and injected as described previously (Keller et al., 1989) with 50 ng of either Glut1 or Glut4 mRNA synthesized in vitro (Megascript RNA synthesis kit, Ambion). After a three day incubation in Barth=s saline containing albumin at 18° C., groups of 15-20 oocytes were washed and [^3H]-2-deoxyglucose (50 μM) uptake measurements were performed in Barth's saline at 22° C. for 30 minutes.

The subject of the next assay is 3T3-L1 adipocytes. The assay is described as follows: [3H]-2-deoxyglucose uptake in 3T3-L1 adipocytes, basal and insulin-stimulated. The assay is classed as cell-based. As to conditions: for effect on insulin-stimulated glucose uptake relative to indinavir: 50 μM (FIG. 1B); for effect on basal glucose uptake: basal conditions. The procedure:
FIG. 1A. […] Results from three experiments were normalized to the value obtained from insulin-stimulated control cells and are shown as the mean±S.E. (n=6). FIG. 1B. […] Results were normalized to the value obtained from insulin-stimulated control cells and are shown as the mean±S.E. (n=3). 3T3-L1 fibroblasts obtained from the American Type Culture Collection were grown to confluence and 48 h later subjected to the differentiation protocol described previously (Tordjman et al. 1989). Mature 3T3-L1 adipocytes were maintained in DMEM supplemented with 10% fetal bovine serum and used 10 to 15 d post-differentiation. 3T3-L1 adipocytes grown in 3.5 cm dishes were serum-starved for at least 3 hours and then washed three times with Krebs-Ringer phosphate buffer. […] Stock solutions of indinavir and amprenavir were made in water. Ritonavir was dissolved in ethanol.

Assay [2] can be described thus: Glucose tolerance after acute indinavir administration in rats. The assay is classed as in vivo, male Wistar rats. The text has this:
(§4) Male Wistar rats (Charles River Corp) weighing between 250-400 g were used for all experiments described below. Glucose measurements were made using a Glucometer Elite Glucometer (Bayer Corporation, Diagnostics Division, Tarrytown, N.Y.). […] Jugular vein and carotid artery catheters were fabricated using microrenathane tubing (Braintree Scientific) for venous catheters and PE50 tubing (Becton Dickenson) for arterial catheters. Catheters were inserted surgically under methohexital (Jones Pharma Inc, St. Louis, Mo.) anesthesia. Humulin R insulin (Eli Lilly, Indianapolis, Ind.) was used where indicated.

Assay [3] deals with Glut4. The assay is described as follows: Immunoblot of Glut4 content in PM and LDM fractions of 3T3-L1 adipocytes (translocation). As to conditions: indinavir-treated cells, 100 μM for 4 h.
Assay [4] is described as follows: Euglycemic hyperinsulinemic clamp (peripheral insulin sensitivity) in rats. It is filed as in vivo, male Wistar rats. As to conditions: for reduction in peripheral insulin sensitivity (average GIR) compared with controls: infusion started 30 min before clamp, p<0.05. The method, then:
Jugular vein and carotid artery catheters were inserted, at least 4 days prior to each experiment, into 200-400 gm male Wistar rats under methohexital anesthesia. Following an overnight fast, rats were infused with insulin (40 mU/kg/min) and 50% dextrose through the venous catheter. Blood was sampled every 5-10 minutes through the arterial catheter and serum glucose concentrations were determined. The glucose infusion rate (GIR) space was adjusted to maintain glucose levels of 100-110 mg/dl.
Male Wistar rats weighing 200-300 gm were catheterized as described in FIG. 5. […] After 30 minutes, insulin (40 mU/kg/min) and 50% dextrose were added to the intravenous infusion. Blood was sampled through the arterial line every 5 min and the dextrose infusion rate was adjusted to maintain plasma glucose levels between 105-115 mg/dL. GIR represents the mean glucose infusion rate during the final 30 minutes of each 2 hour clamp experiment. Results represent the mean±SEM from 3-5 rats per group. [* indicates […]]
as §4
Peripheral insulin sensitivity in rats was assessed by the euglycemic hyperinsulinemic clamp technique. Venous and arterial catheters were surgically inserted into the animals under anesthesia. At least 4 d prior to the initiation of experimental treatments catheters were inserted into both jugular vein and carotid artery locations. Following a 12 hour fast, animals were infused with insulin (40 mU/kg/min) and 50% dextrose in water through the venous catheter. Blood was sampled every 5-10 min through the arterial catheter for serum glucose determinations. The rate of glucose infusion (Glucose Infusion Rate, GIR) was adjusted as necessary to maintain serum glucose at 100-110 mg/dl (FIGS. 5A, 5B, 5C).
Insulin sensitivity was assessed by the average glucose infusion rate required to maintain euglycemia after equilibrium had been established.

Assay [5] concerns the target T2, Glut1 (Homo sapiens, UniProt P11166).
T2 construct: expressed in transfected cells; host or cells: Xenopus laevis oocytes, microinjected with in vitro transcribed mRNA
T2 sequence (P11166 1-492): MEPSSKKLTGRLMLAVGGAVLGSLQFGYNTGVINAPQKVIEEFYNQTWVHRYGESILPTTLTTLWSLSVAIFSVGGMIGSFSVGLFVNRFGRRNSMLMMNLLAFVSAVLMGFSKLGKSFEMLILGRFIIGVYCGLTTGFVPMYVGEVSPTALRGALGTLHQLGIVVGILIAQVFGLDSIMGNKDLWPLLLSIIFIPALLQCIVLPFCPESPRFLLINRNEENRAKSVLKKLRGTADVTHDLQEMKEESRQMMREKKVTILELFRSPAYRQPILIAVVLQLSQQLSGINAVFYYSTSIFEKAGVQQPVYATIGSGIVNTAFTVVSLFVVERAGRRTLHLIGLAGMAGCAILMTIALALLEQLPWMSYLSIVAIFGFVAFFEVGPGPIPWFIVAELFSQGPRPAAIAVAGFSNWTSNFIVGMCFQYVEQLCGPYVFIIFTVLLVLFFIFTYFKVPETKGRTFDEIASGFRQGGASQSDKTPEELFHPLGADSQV
In words: [3H]-2-deoxyglucose uptake in Xenopus oocytes expressing Glut1. As to conditions: 22° C., 30 min. It is filed as cell-based. The procedure:
as §1, §2, §3

Assay [6] has as its system Glut1. In words: Immunoblot of Glut1 content in PM and LDM fractions of 3T3-L1 adipocytes (translocation). As to conditions: indinavir-treated cells, 100 μM for 4 h. In general terms: A western blot detects proteins with antibodies after separation by electrophoresis.
Assay [7] has as its system insulin receptor (IR), IRS-1 and Akt phosphorylation. The assay is described as follows: Immunoblot of insulin signaling (IR, IRS-1, Akt phosphorylation) in 3T3-L1 adipocytes. The assay is classed as cell-based. As to conditions: 100 μM for 4 h, 1 μM insulin 20 min.
Description: Cells were further incubated for 20 min with or without 1 μM insulin, and subcellular fractions were subsequently isolate. Plasma membrane (PM), low density microsomal (LDM), and cytosolic (CYT) fractions were subjected to immunoblot analysis using anti-phosphotyrosine antibodies.
Whole cell lysates from 3T3-L1 adipocytes from samples treated as described above were subjected to immunoblot analysis using anti-phospo Akt antibodies, which recognize Akt phosphorylated on threonine 308 and serine 473.

Turning to `CC(C)c1nc(CN(C)C(=O)N[C@H](C(=O)N[C@@H](Cc2ccccc2)C[C@H](O)[C@H](Cc2ccccc2)NC(=O)OCc2cncs2)C(C)C)cs1` [ritonavir], at Glut4 [1], the inhibition (commonly how much of the control response was suppressed) at 50 µM came out at 42%. Also, in the assay on 3T3-L1 adipocytes, the “effect on insulin-stimulated glucose uptake relative to indinavir” value was “comparable to that of indinavir”.
Molecule `CC(C)CN(C[C@@H](O)[C@H](Cc1ccccc1)NC(=O)O[C@H]1CCOC1)S(=O)(=O)c1ccc(N)cc1` [amprenavir] had an inhibition at 50 µM at Glut4 [1] of 54%. Further, the “effect on insulin-stimulated glucose uptake relative to indinavir” value with 3T3-L1 adipocytes is on record as “comparable to that of indinavir”.
As for `CC(C)(C)NC(=O)[C@@H]1CN(Cc2cccnc2)CCN1C[C@@H](O)C[C@@H](Cc1ccccc1)C(=O)N[C@H]1c2ccccc2C[C@H]1O` [indinavir], the “blood glucose concentration at t=30 min” value in assay [2] (10 mg/kg i.p. together with dextrose 2 g/kg i.p., control 195±15, p<0.05) amounted to 241 ± 11 mg/dL. Moreover, the “peak plasma glucose concentration” value in assay [2] (15 mg/kg i.v. 5 min prior to glucose 2 gm/kg i.p., control 311±30) was determined as 407 ± 25 mg/dL. The “increase with insulin of Glut4 content in plasma membrane (PM) fraction” value in the assay with Glut4 [3] is 38%. Moreover, the entries for the “reduction in peripheral insulin sensitivity (average GIR) compared with controls” value in assay [4] (0.3 mg/kg/min) and in assay [4] (0.5 mg/kg/min) were 15% and 40%, respectively. In assay [4] (after stopping indinavir infusion), the “time to restoration of insulin sensitivity to baseline after stopping infusion” value was not above 4 h. Also, the “decrease in GIR required to maintain euglycemia” value was found to be 20% in assay [4] (i.v. infusion 0.3 mg/kg/min) and 50% in assay [4] (i.v. infusion 0.5 mg/kg/min, within 90 minutes after start). Moreover, the inhibition at 100 µM was determined as 45% at Glut4 [1] (100 μM (maximum dose tested)) and 63% in the assay on 3T3-L1 adipocytes (Mus musculus, 3T3-L1, 100 μM, added 6 min prior to assay, 1 μM insulin for 20 min, read-out: inhibition of insulin-stimulated glucose uptake). For the same molecule, at Glut1 [5], the “effect on Glut1 activity in Xenopus oocytes” value is recorded as “no effect”. In the assay with Glut1 [6], the “increase with insulin of Glut1 content in plasma membrane (PM) fraction” value came out at 63%. Besides, the “IR autophosphorylation and tyrosine phosphorylation of IRS-1” value in assay [7] is on record as “occurred normally”. For the same molecule, in assay [7], the “effect on insulin-stimulated phosphorylation of Akt on threonine 308 or serine 473” value is “no effect”. Moreover, in the assay on 3T3-L1 adipocytes (Mus musculus, 3T3-L1, 10 μM, added 6 min prior to assay, 1 μM insulin, p<0.0001, read-out: inhibition of insulin-stimulated glucose uptake), the inhibition at 10 µM worked out at 26%. Further, the “effect on basal glucose uptake” value in the assay on 3T3-L1 adipocytes (20 μM) is recorded as “modest increase”; with 3T3-L1 adipocytes (10-100 μM) it was “largely unaffected”. For the same molecule, the “extent of inhibition of transport activity when added before or after 20 min of insulin stimulation” value in the assay on 3T3-L1 adipocytes (data not shown) is given as “did not change”. Also, the “time to restoration of normal insulin-responsive glucose uptake after removal of drug” value in the assay with 3T3-L1 adipocytes (data not shown) was not above 30 min.
